Data on one compound can be found in patent publication US12433889B2 (priority 2021, dated 2025).

The term MIC denotes the smallest concentration in the dilution series that meets the test's criterion for growth inhibition.

One data set concerns M. avium ATCC 700898. The data set can be described thus: MIC by microbroth dilution, with and without CF sputum. The data set is classed as cell-based. As to conditions: Mycobacterium avium.
Data set [1] relates to M. intracellulare DSM 43223. The description is as above. The settings on record: Mycobacterium intracellulare. The data set is classed as cell-based.
For another data set, the system named is M. Chimaera CIP 107892. The data set is described as above. As to conditions: Mycobacterium intracellulare. The data set is classed as cell-based.
In a further data set the test system is M. avium B18101968. The description is as above. The data set is classed as cell-based. The settings on record: Mycobacterium avium.
A further data set deals with M. abscessus CIP104536. The data set is described as above. As to conditions: Mycobacteroides abscessus. The data set is classed as cell-based.
In the next data set the test system is M. abscessus B18104072. The data set is described as above. The data set is classed as cell-based. The settings on record: Mycobacteroides abscessus.
The test system of a further data set is M. abscessus B15029863. Described as above. The data set is classed as cell-based. As to conditions: Mycobacteroides abscessus.
The test system of the next data set is M. abscessus B12052284. The data set is described as above. The class given is cell-based. The settings on record: Mycobacteroides abscessus.
For data set [2] the following is noted: humans, microcrystalline suspension in an oil-wax base; cited from earlier work.
For data set [3] the following is noted: BCS class II; cited from earlier work.

≈ marks a conversion by molar mass, not a printed value.

As to `CC(C)/N=c1\cc2n(-c3ccc(Cl)cc3)c3ccccc3nc-2cc1Nc1ccc(Cl)cc1` [Clofazimine, clofazimine], the MIC was above 2 µg/mL in the data set with M. avium ATCC 700898 (ATCC700898, + SP (10% CF sputum)); 0.25 µg/mL (≈ 0.528 µM) in the data set on M. avium ATCC 700898 (ATCC700898, absence of sputum); above 2 µg/mL in [1] (DSM43223, + SP (10% CF sputum)); 1 µg/mL (≈ 2.11 µM) in data set [1] (DSM43223, absence of sputum); above 2 µg/mL in the data set on M. Chimaera CIP 107892 (CIP107892, + SP (10% CF sputum)); 0.5 µg/mL (≈ 1.06 µM) against M. Chimaera CIP 107892 (CIP107892, absence of sputum). The MIC is above 2 µg/mL with M. avium B18101968 (B18101968, + SP (10% CF sputum)); 0.5 µg/mL (≈ 1.06 µM) with M. avium B18101968 (B18101968, absence of sputum); above 2 µg/mL in the data set with M. abscessus CIP104536 (CIP104536, + SP (10% CF sputum)); 0.25 µg/mL (≈ 0.528 µM) with M. abscessus CIP104536 (CIP104536, absence of sputum); above 2 µg/mL with M. abscessus B18104072 (B18104072, + SP (10% CF sputum)); 1 µg/mL (≈ 2.11 µM) in the data set on M. abscessus B18104072 (B18104072, absence of sputum). The MIC in the data set on M. abscessus B15029863 (B15029863, + SP (10% CF sputum)) was above 2 µg/mL; in the data set with M. abscessus B15029863 (B15029863, absence of sputum) it was 2 µg/mL (≈ 4.22 µM); in the data set on M. abscessus B12052284 (B12052284, + SP (10% CF sputum)), above 2 µg/mL; against M. abscessus B12052284 (B12052284, absence of sputum), 2 µg/mL (≈ 4.22 µM). In addition, the “absorption after oral administration” value in [2] is listed as 45-62%. Further, the solubility in water result in data set [3] is reported as “practically insoluble in water”.
